The values below come from patent US12545643B2, “3,5-diaminobenzoic acid compound, and Pin1 inhibitor and therapeutic agent for inflammatory diseases using same” (Amenis Bioscience, Inc., priority 2020, dated 2026).

In one assay the test system is SARS-CoV-2. Put plainly: SARS-CoV-2 proliferation suppression study (nucleocapsid Western blot in VeroE6/TMPRSS2 cells). The conditions noted are these: for inhibition at 20 µM: Severe acute respiratory syndrome coronavirus 2, 20 μM, MOI 10, lysate 8 hours after infection, read-out: Inhibition rate (SARS-CoV-2 nucleocapsid band area). The class given is cell-based.
Assay [1] deals with T1, Pin1 (Homo sapiens, UniProt Q13526). Put plainly: Cell-based assay of Pin1 inhibition (AMPK phosphorylation level as index, Western blot). More on the design: endogenous in cells; host or cells: 293T cells; key: +++: a higher level of AMPK phosphorylation is promoted, as compared with C1; ++: a similar level of AMPK phosphorylation is promoted, as compared with C1; +: a lower level of AMPK phosphorylation is promoted, as compared with C1; −: no or almost no promotion is found in AMPK phosphorylation. To be noted: 293T cells, compound at 50 μM, 10 mM 2-DG, pAMPK level compared with known Pin1 inhibitor C1. How it is done:
To evaluate the inhibitory activity of each compound synthesized in Example 1 against the function of Pin1, a cell-based assay was performed according to the method previously developed by the inventors (Yusuke Nakatsu et al., Journal of Biological Chemistry, 2015, Vol. 290, No. 40, pp. 24255-24266), in which the phosphorylation level of AMPK (AMP-activated protein kinase), a protein whose phosphorylation is suppressed by Pin1, was examined as an index.
Briefly, 293T cells were plated on a collagen-coated 24-well plate. Forty-eight hours later, each compound synthesized in the preceding example (at 50 μM) was added to the plate, and the plate was left to stand in an incubator for 30 minutes. Subsequently, 10 mM 2-DG was added to the plate, and one hour later, each sample was collected with a buffer containing mercaptoethanol and SDS.
SDS-PAGE and blotting were performed, and blocking was then performed with 3% BSA for 1 hour, according to conventional protocols. Subsequently, a pAMPK antibody (Cell Signaling; diluted 1:2000 in Can Get Signal Solution 1, Toyobo) as a primary antibody, and an HRP-linked anti rabbit IgG (GE Healthcare; diluted 1:4000 in Can Get Signal Solution 2, Toyobo) as a secondary antibody were allowed to react at ambient temperature for 1 hour prior to detection.
The inhibitory activity against the function of Pin1 was evaluated as indicated below by comparing the inhibition levels between each compound and a known Pin1 inhibitor, C1 ((R)-2-(5-(4-methoxyphenyl)-2-methylfuran-3-carboxamido)-3-(naphthalene-6-yl) propanoic acid):
(+++): a higher level of AMPK phosphorylation is promoted, as compared with C1;
(++): a similar level of AMPK phosphorylation is promoted, as compared with C1;
(+): a lower level of AMPK phosphorylation is promoted, as compared with C1;
(−): no or almost no promotion is found in AMPK phosphorylation.
Background: A western blot detects proteins with antibodies after separation by electrophoresis.

Assay [2] concerns non-alcoholic steatohepatitis (NASH) model mice. Put plainly: NASH treatment study in HFD-fed NASH model mice. The conditions noted are these: 5 mg/kg/day orally three times a week, 8 weeks. The format is in vivo. How it is done:
Animal experiments were performed using non-alcoholic steatohepatitis (NASH) model mice to test the compounds according to the present invention for the therapeutic effect on NASH. NASH model mice (hereinafter referred to as “NASH mice”) were produced by feeding a high-fat and high-cholesterol diet containing palm oil (HFD) to individual 8-week-old male laboratory mice for 8 weeks. The mice were divided into groups during 8 weeks of the HFD-feeding period, and animal experiments were performed on a group of mice to which a compound according to the present invention (H-686) was administered orally at a dose of 5 mg/kg/day three times a week, and a group of mice to which nothing was administered. In addition, a normal diet was given to individual 8-week-old male laboratory mice for 8 weeks to prepare control mice. FIGS. 1 (A) and 1 (B) show the results of measurements of body weight and liver weight of these mice respectively. FIGS. 2 (A) and 2 (B) show the results of measurements of blood AST (GOT) concentration and blood ALT (GPT) concentration. respectively. Then FIGS. 3 (A) and 3 (B) show the results of measurements of mRNA expression levels of Colla1 (collagen, type I, alpha 1 chain) and Colla2 (collagen, type I, alpha 2 chain), respectively.

The target of assay [3] is T1, Pin1. Put plainly: Cell-free assay of peptidylprolyl isomerase activity (absorbance at 330 nm, substrate Suc-Ala-Glu-Pro-Phe-pNA). The class given is biochemical. To be noted: compound 10 μM, Pin1 5 nM, substrate peptide 60 μM, 10° C.; read-out: Pin1 inhibition activity Cell-free assay (inhibition ratio). As for the experimental part: For some compounds synthesized in Example 1, the inhibitory activity against the function of Pin1 was measured by a cell-free assay based on the method by Janowski et al. (AnalyticalBiochemistry, 1997, Vol. 252, Issue 2, pp. 299-307) because there is an assay measuring peptidylprolylisomerase activity without cells (cell-free).
Briefly, an assay buffer (containing 35 mM HEPES, pH 7.8, 50 μM DTT and 0.0025% NP40) was equilibrated to 10° C. in a quartz cell with stirring function. To this solution was added the compound dissolved in DMSO (10 μM) and then UV spectrum of the resulting solution was immediately measured. Then Pin1 (final concentration of 5 nM) was added to the solution. The reaction was initiated by adding a substrate peptide (Suc-Ala-Glu-Pro-Phe-pNA) dissolved in 0.5 M LiCl solution in trifluoroethanol (final concentration of 60 μM). After reaction was initiated, the change of absorbance at 330 nm was measured for 5 minutes. The resultant reaction curve was fitted to a first order decay model to calculate the reaction rate. The catalytic reaction rate was calculated by subtracting the background rate from the reaction rate. The inhibition ratio (%) was calculated from the catalytic reaction rates in the presence and absence of the compound. The higher inhibition ratio means the higher inhibitory activity against Pin1 function.

A further assay relates to NASH-induced mice. The conditions noted are these: cited from earlier work.

T1 sequence (Q13526 whole entry): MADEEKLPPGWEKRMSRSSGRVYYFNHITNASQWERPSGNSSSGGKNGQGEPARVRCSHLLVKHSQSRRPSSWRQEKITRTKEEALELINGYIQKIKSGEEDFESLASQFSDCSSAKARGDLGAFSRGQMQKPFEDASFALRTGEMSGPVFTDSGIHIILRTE

As for `COC(=O)c1cc(NC(=O)c2cccnc2)cc(NC(=O)n2c3ccccc3c3ccccc32)c1` [Compound H-680], the inhibition at 20 µM in the assay with SARS-CoV-2 is 53%. Besides, at Pin1 [1], the “Pin1 inhibition activity Cell-based assay” value is reported as “− (Hydrolysis causes conversion to H-682)”.
For the compound `COC(=O)c1cc(NC(=O)c2ccc3ccccc3n2)cc(NC(=O)n2c3ccccc3c3ccccc32)c1` [Compound H-684], the inhibition at 20 µM with SARS-CoV-2 amounted to 66%. For the same compound, the “Pin1 inhibition activity Cell-based assay” value at Pin1 [1] was “++ (Hydrolysis causes conversion to H-688)”.
In the same order, the values of `COC(=O)c1cc(NC(=O)c2cnc3ccccc3n2)cc(NC(=O)n2c3ccccc3c3ccccc32)c1` [Compound H-685] are 58% and “+”.
Take `COC(=O)c1cc(NC(=O)c2ccc3c(c2)OCCO3)cc(NC(=O)n2c3ccccc3c3ccccc32)c1` [Compound H-686]: the “body weight (weight gain)” value in assay [2] (FIG. 1 (A)) is on record as “weight gain in the mice given H-686 was suppressed”. For the same compound, in assay [2] (FIG. 1 (B)), the “liver weight (increase)” value is “the increase in liver weight was significantly suppressed”. The “blood AST (GOT) concentration” value in assay [2] (FIG. 2 (A)) is given as “the AST value was decreased”. Besides, the “blood ALT (GPT) concentration” value in assay [2] (FIG. 2 (B)) is “the ALT value was decreased”. Also, in assay [2] (FIG. 3 (A)), the “mRNA expression level of Colla1 (collagen, type I, alpha 1 chain)” value is given as “the expression level of Colla1 was suppressed”. In assay [2] (FIG. 3 (B)), the “mRNA expression level of Colla2 (collagen, type I, alpha 2 chain)” value was “the suppression of the expression level was observed”. In addition, the “fat accumulation in liver tissue (microscopic observation)” value in assay [2] (FIG. 4) is “suppressed fat accumulation”. Also, the “Pin1 inhibition activity Cell-based assay” value on Pin1 [1] was “++ (Hydrolysis causes conversion to H-692)”.
In the case of `O=C(O)c1cc(NC(=O)c2ccc3ccccc3n2)cc(NC(=O)n2c3ccccc3c3ccccc32)c1` [Compound H-688], the “suppressing effect against SARS-CoV-2 proliferation” value in the assay on SARS-CoV-2 (5 μM or 10 μM, MOI 10, 8 hours after infection, FIG. 5) was “observed to have a suppressing effect against SARS-CoV-2 proliferation”. In the assay on SARS-CoV-2, the inhibition at 20 µM was 98%. The “Pin1 inhibition activity Cell-based assay” value at Pin1 [1] was “++”.
On to `O=C(COc1ccccc1)Nc1cc(NC(=O)n2c3ccccc3c3ccccc32)cc(C(=O)O)c1` [Compound H-759], for which, on Pin1 [3], the inhibition at 10 µM came to 11%. On Pin1 [1], the “Pin1 inhibition activity Cell-based assay” value is given as “−”.
On the same counts, the results for `O=C(COc1ccc2ccccc2c1)Nc1cc(NC(=O)n2c3ccccc3c3ccccc32)cc(C(=O)O)c1` [Compound H-761] are 70% and “−”.
For `COC(=O)c1cc(NC(=O)COc2ccccn2)cc(NC(=O)n2c3ccccc3c3ccccc32)c1` [Compound H-762], the inhibition at 20 µM in the assay with SARS-CoV-2 turned out to be 83%. Besides, on Pin1 [1], the “Pin1 inhibition activity Cell-based assay” value is “− (Hydrolysis causes conversion to H-763)”.
With `O=C(COc1ccccn1)Nc1cc(NC(=O)n2c3ccccc3c3ccccc32)cc(C(=O)O)c1` [Compound H-763], at Pin1 [3], the inhibition at 10 µM is 24.6%. For the same compound, the inhibition at 20 µM in the assay with SARS-CoV-2 was determined as 97%. Also, the “Pin1 inhibition activity Cell-based assay” value at Pin1 [1] is reported as “−”.
As for `O=C(COc1ccc2ccccc2n1)Nc1cc(NC(=O)n2c3ccccc3c3ccccc32)cc(C(=O)O)c1` [Compound H-765], the inhibition at 10 µM on Pin1 [3] stood at 42.8%. Besides, the “Pin1 inhibition activity Cell-based assay” value at Pin1 [1] is “−”.
In the case of `O=C(CNC(=O)c1ccccc1)Nc1cc(NC(=O)n2c3ccccc3c3ccccc32)cc(C(=O)O)c1` [Compound H-767], the inhibition at 10 µM on Pin1 [3] is 74.8%. The “Pin1 inhibition activity Cell-based assay” value at Pin1 [1] was “−”.
On the same counts, the results for `O=C(CNC(=O)OCc1ccccc1)Nc1cc(NC(=O)n2c3ccccc3c3ccccc32)cc(C(=O)O)c1` [Compound H-769] are 15.9% and “−”.
`O=C(CN(c1ccccc1)c1ccccc1)Nc1cc(NC(=O)c2ccc3ccccc3c2)cc(C(=O)O)c1` [Compound H-819]: the inhibition at 10 µM at Pin1 [3] was 62%. The inhibition at 20 µM in the assay on SARS-CoV-2 stood at 95%.
Turning to `O=C(CN(c1ccccc1)c1ccccc1)Nc1cc(NC(=O)c2ccc3ccccc3n2)cc(C(=O)O)c1` [Compound H-821], on Pin1 [3], the inhibition at 10 µM amounted to 94.4%. Further, the inhibition at 20 µM in the assay on SARS-CoV-2 was determined as 95%.
Turning to `O=C1C=CC(=O)c2c(O)cccc21` [Juglone], in the assay with NASH-induced mice, the “development of NASH” value was “ameliorates the development of NASH”.
